Experimental data published in PubChem BioAssay (NCI).
“And” between values parts separate entries of the source, which are not always exact repeats. Identical values can stand only once.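 Protocol summary: plate cells (96-well), add compound at 5 concentrations, incubate 48 h, interpolate endpoints linearly. GI50 = concentration required for 50% inhibition of growth. The concentration for full growth arrest is given as TGI.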

Assays:
Assay in all cases: growth of human tumour cells (NCI), 48 h
[1] = system: CCRF-CEM leukemia
[2] = system: KM12 colon
[3] = system: MDA-MB-435
[4] = system: NCI-H226 lung
[5] = system: NCI-H460 lung
[6] = system: OVCAR-4 ovarian
[7] = system: SK-OV-3 ovarian
[8] = system: UACC-62 melanoma
[9] = system: MOLT-4 leukemia
[10] = system: OVCAR-3 ovarian

In the case of `O=C(/C=C\c1ccccc1)N1CCc2ccccc2C1`, the TGI [1] is reported as 91.3 µM, the TGI [2] is reported as > 100 µM and the TGI [3] is reported as 84.1 µM. The TGI [4] was > 100 µM, the TGI [5] was > 100 µM and the TGI [6] was > 100 µM. For the same compound, the TGI [7] was > 100 µM and the TGI [8] was > 100 µM.
`CC(=O)[CH-]C(C)=O.CC(=O)[CH-]C(C)=O.CC[O-].CC[O-].[Ti+4]` was tested, and the GI50 [1] was > 100 µM, the TGI [1] was > 100 µM and the GI50 [2] was > 100 µM. For the same compound, the TGI [2] was > 100 µM, the GI50 [9] was > 100 µM and the TGI [9] was > 100 µM. The GI50 [4] was > 100 µM, the TGI [4] was > 100 µM and the GI50 [5] was > 100 µM. The TGI [5] was > 100 µM, the GI50 [10] was > 100 µM and the TGI [10] was > 100 µM. The GI50 [6] was > 100 µM, the TGI [6] was > 100 µM and the GI50 [7] was > 100 µM. The TGI [7] was > 100 µM, the GI50 [8] was > 100 µM and the TGI [8] was > 100 µM.
For `NNC(=O)C(=O)N/N=C(\CCC(=O)Nc1ccc(Cl)cc1)Cc1nc2ccccc2s1`, the TGI [1] was 77.1 µM, the TGI [2] was > 100 µM and the TGI [9] was > 100 µM. The TGI [4] was > 100 µM, the TGI [5] was > 100 µM and the TGI [10] was > 100 µM. The TGI [7] was > 100 µM and the TGI [8] was 54.3 µM.
With `N.N.O=P([O-])([O-])C1(P(=O)([O-])[O-])CCCCCN1.[Pt+2]` the GI50 [1] was > 100 µM, the TGI [1] was > 100 µM and the GI50 [2] was > 100 µM. For the same compound, the TGI [2] was > 100 µM, the GI50 [9] was > 100 µM and the TGI [9] was > 100 µM. The GI50 [4] was > 100 µM, the TGI [4] was > 100 µM and the GI50 [5] was > 100 µM. The TGI [5] was > 100 µM, the GI50 [10] was > 100 µM and the TGI [10] was > 100 µM. For the same compound, the GI50 [6] was > 100 µM, the TGI [6] was > 100 µM and the GI50 [7] was > 100 µM. The TGI [7] was > 100 µM, the GI50 [8] was > 100 µM and the TGI [8] was > 100 µM.
In the case of `CC(=O)c1nc2ccccc2n1CC(=O)c1cccc(Cl)c1`, the GI50 [1] is reported as 1.17 µM, the TGI [1] is reported as > 26.2 µM and the GI50 [2] is reported as 0.779 µM. For the same compound, the TGI [2] was > 43.4 µM, the GI50 [9] was 0.897 µM and the TGI [9] was 26.7 µM. For the same compound, the GI50 [4] was 3.39 µM, the TGI [4] was > 44.2 µM and the GI50 [5] was 0.36 µM. For the same compound, the GI50 [10] was 0.239 µM, the TGI [10] was > 100 µM and the GI50 [6] was 0.752 µM. For the same compound, the TGI [6] was > 100 µM, the GI50 [7] was 1.27 µM and the TGI [7] was > 100 µM. The GI50 [8] was 0.416 µM and the TGI [8] was 7.29 µM.
`O=C(CCC(=O)C1CCC/C1=N/O)Nc1ccc(Cl)cc1` (stereo unspecified) was tested, and the TGI [1] was > 100 µM, the TGI [2] was > 100 µM and the TGI [9] was > 100 µM. For the same compound, the TGI [4] was > 100 µM, the TGI [5] was > 100 µM and the TGI [10] was > 100 µM. For the same compound, the TGI [6] was > 100 µM, the TGI [7] was > 100 µM and the TGI [8] was > 100 µM.
With `CCSc1ccc(C2C(Br)C(=O)N2c2cc(OC)c(OC)c(OC)c2)cc1` (stereo unspecified) the GI50 [1] was 0.278 µM, the TGI [1] was 18.2 µM and the GI50 [2] was 0.202 µM. The TGI [2] was > 100 µM, the GI50 [9] was 0.347 µM and the TGI [9] was 88.9 µM. It also gave a GI50 [4] of 3.11 µM, a TGI [4] of 43.5 µM and a GI50 [5] of 0.539 µM. For the same compound, the TGI [5] was 14.2 µM, the GI50 [10] was 0.109 µM and the TGI [10] was 0.73 µM. For the same compound, the GI50 [6] was 1.43 µM, the TGI [6] was 40.5 µM and the GI50 [7] was 0.392 µM. For the same compound, the TGI [7] was > 100 µM, the GI50 [8] was 0.0973 µM and the TGI [8] was 30 µM.
In the case of `CNCCN=c1ccc2c3c1c(O)c1c(O)ccc(=O)c1c3[nH]n2CCNCCO`, the GI50 [2] is reported as 0.918 µM, the TGI [2] is reported as 4.23 µM and 15.1 µM and the TGI [3] is reported as 3.32 µM. It also gave a GI50 [4] of 0.000924 µM, a TGI [4] of 0.336 µM and a GI50 [5] of 0.000851 µM. For the same compound, the TGI [5] was 1.21 µM, the GI50 [10] was 1.16 µM and the TGI [10] was 3.99 µM and 5.12 µM. The GI50 [6] was 0.861 µM and 0.923 µM, the TGI [6] was 3.26 µM and 5.54 µM and the GI50 [7] was 0.137 µM and 0.162 µM. For the same compound, the TGI [7] was 3.25 µM and 5.72 µM, the GI50 [8] was 0.0741 µM and the TGI [8] was 3.07 µM.
